# What was measured:
# Enterococcus faecalis [1] = experiment: Antibacterial activity against Enterococcus faecalis ATCC 29212 assessed as bacterial growth inhibition incubated for 20 to 24 hrs by microdilution assay; format: functional; conditions: time 20-24 hrs
# Staphylococcus aureus [2] = experiment: Antibacterial activity against Staphylococcus aureus HEMSA assessed as bacterial growth inhibition incubated for 20 to 24 hrs by microdilution assay; format: functional; conditions: time 20-24 hrs
# Staphylococcus aureus [3] = experiment: Antibacterial activity against Staphylococcus aureus ATCC 2592 assessed as bacterial growth inhibition incubated for 20 to 24 hrs by microdilution assay; format: functional; conditions: time 20-24 hrs
# Candida albicans = experiment: Antifungal activity against Candida albicans assessed as fungal growth inhibition incubated by microtitre assay; format: functional
# Aspergillus = experiment: Antifungal activity against Aspergillus assessed as fungal growth inhibition incubated by microtitre assay; format: functional
# SH-SY5Y = experiment: Antitumor activity against human SH-SY5Y cells assessed as induction of apoptosis by propidium iodide staining based flow cytometry analysis; format: functional, cell-based
# Fusarium = experiment: Antifungal activity against Fusarium assessed as fungal growth inhibition incubated by microtitre assay; format: functional
# [4] = Inhibition of Vibrio cholerae carbonic anhydrase alpha assessed as inhibition constant by stopped-flow CO2 hydration assay
# [5] = Inhibition of Vibrio cholerae alpha carbonic anhydrase assessed as inhibition constant by phenol red-based hydrase assay
# Trypanosoma cruzi [6] = experiment: Antibacterial activity against Trypanosoma cruzi Y assessed as fold change in bacterial growth incubated for 24 hrs; format: functional
# EBC-1 = experiment: Anticancer activity against human EBC-1 cells assessed as cell growth inhibition incubated for 72 hrs by resazurin based spectrophotometer analysis; format: functional; conditions: EBC-1, 72 h
# Carbonic anhydrase 12 = Carbonic anhydrase 12 (Homo sapiens, UniProt O43570); experiment: Inhibition of human carbonic anhydrase 12 assessed as inhibition constant
# Carbonic anhydrase 12, sequence (O43570 whole entry): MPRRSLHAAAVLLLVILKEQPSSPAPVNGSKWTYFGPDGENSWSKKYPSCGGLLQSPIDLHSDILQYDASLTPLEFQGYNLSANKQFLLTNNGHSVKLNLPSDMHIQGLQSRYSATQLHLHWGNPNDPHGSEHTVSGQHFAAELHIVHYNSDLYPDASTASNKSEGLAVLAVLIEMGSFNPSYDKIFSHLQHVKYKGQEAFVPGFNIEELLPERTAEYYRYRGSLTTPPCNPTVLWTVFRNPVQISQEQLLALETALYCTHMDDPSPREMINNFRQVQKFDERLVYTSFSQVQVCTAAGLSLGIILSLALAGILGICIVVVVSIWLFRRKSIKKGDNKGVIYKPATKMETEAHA
# Carbonic anhydrase 1 = Carbonic anhydrase 1 (Homo sapiens, UniProt P00915); experiment: Inhibition of human carbonic anhydrase 1 assessed as inhibition constant
# Carbonic anhydrase 1, sequence (P00915 whole entry): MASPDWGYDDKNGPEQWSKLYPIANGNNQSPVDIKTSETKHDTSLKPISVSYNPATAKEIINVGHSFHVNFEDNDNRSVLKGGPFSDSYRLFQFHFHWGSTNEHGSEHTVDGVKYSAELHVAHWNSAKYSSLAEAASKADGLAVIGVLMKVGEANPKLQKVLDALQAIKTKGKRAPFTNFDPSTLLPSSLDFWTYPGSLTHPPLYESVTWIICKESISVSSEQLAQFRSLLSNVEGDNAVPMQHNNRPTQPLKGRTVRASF
# Carbonic anhydrase 2 = Carbonic anhydrase 2 (Homo sapiens, UniProt P00918); experiment: Inhibition of human carbonic anhydrase 2 assessed as inhibition constant
# Carbonic anhydrase 9 = Carbonic anhydrase 9 (Homo sapiens, UniProt Q16790); experiment: Inhibition of human carbonic anhydrase 9 assessed as inhibition constant
# Carbonic anhydrase 7 = Carbonic anhydrase 7 (Homo sapiens, UniProt P43166); experiment: Inhibition of human carbonic anhydrase 7 assessed as inhibition constant by a stopped flow CO2 hydrase assay
# Carbonic anhydrase 7, sequence (P43166 whole entry): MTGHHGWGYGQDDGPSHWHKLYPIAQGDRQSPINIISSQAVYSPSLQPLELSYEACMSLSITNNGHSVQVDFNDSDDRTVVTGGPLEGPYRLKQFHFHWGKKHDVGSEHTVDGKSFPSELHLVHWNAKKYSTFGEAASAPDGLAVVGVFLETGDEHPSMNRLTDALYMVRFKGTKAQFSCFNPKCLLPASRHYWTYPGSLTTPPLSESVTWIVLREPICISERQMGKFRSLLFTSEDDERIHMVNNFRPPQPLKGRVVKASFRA
# Leishmania amazonensis = experiment: […] inhibition incubated for 72 hrs by Giemsa stain based microscopic analysis; format: functional, organism-based
# Leishmania major = experiment: Antibacterial activity against Leishmania major assessed as bacterial growth inhibition incubated for 72 hrs by MTT assay; format: functional, organism-based
# Enterococcus faecalis [7] = experiment: Antibacterial activity against Enterococcus faecalis assessed as bacterial growth inhibition incubated for 24 hrs by microtitre analysis; format: functional
# Bacillus cereus [8] = experiment: […] activity against Bacillus cereus assessed as bacterial growth inhibition incubated for 24 hrs by microtitre analysis; format: functional
# Bacillus cereus [9] = experiment: Antibacterial activity against Bacillus cereus assessed as bacterial growth inhibition incubated for 24 hrs by microtitre analysis; format: functional
# [10] = tested on: Staphylococcus saprophyticus; experiment: Antibacterial activity against Staphylococcus saprophyticus assessed as bacterial growth inhibition incubated for 24 hrs by microtitre analysis; format: functional
# Aspergillus niger = experiment: […] inhibition incubated for 24 hrs by agar disc diffusion assay; format: functional
# HeLa [11] = experiment: Anticancer activity against human HeLa assessed as cell growth inhibition; format: functional, cell-based
# HeLa [12] = experiment: Anticancer activity against human HeLa cells assessed as cell growth inhibition; format: functional, cell-based
# Acinetobacter [13] = experiment: Antibacterial activity against Acinetobacter AB 4184/2/5 assessed as bacterial growth inhibition incubated for 20 hrs by […]; format: functional, organism-based; conditions: AB 4184/2/5, 20 h
# Klebsiella pneumoniae [14] = experiment: Antibacterial activity against Klebsiella pneumoniae KP 21513017 assessed as bacterial growth inhibition incubated for 20 hrs by […]; format: functional, organism-based; conditions: KP 21513017, 20 h
# Klebsiella pneumoniae [15] = experiment: Antibacterial activity against Klebsiella pneumoniae NRZ-00103 assessed as bacterial growth inhibition incubated for 20 hrs by […]; format: functional, organism-based; conditions: NRZ-00103, 20 h
# Acinetobacter [16] = experiment: Antibacterial activity against Acinetobacter AC 1995594 assessed as bacterial growth inhibition incubated for 20 hrs by […]; format: functional, organism-based; conditions: AC 1995594, 20 h
# Escherichia coli [17] = experiment: Antibacterial activity against Escherichia coli EC 2151612 assessed as bacterial growth inhibition incubated for 20 hrs by […]; format: functional
# Pseudomonas aeruginosa [18] = experiment: Antibacterial activity against Pseudomonas aeruginosa ATCC 27853 assessed as bacterial growth inhibition incubated for 20 hrs by […]; format: functional, organism-based; conditions: ATCC 27853, 20 h
# Pseudomonas aeruginosa [19] = experiment: Antibacterial activity against Pseudomonas aeruginosa PA 54 assessed as bacterial growth inhibition incubated for 20 hrs by […]; format: functional, organism-based
# Staphylococcus aureus [20] = experiment: Antibacterial activity against Methicillin resistant Staphylococcus aureus assessed as bacterial growth inhibition incubated for 20 hrs by […]; format: functional
# Escherichia coli [21] = experiment: Antibacterial activity against Escherichia coli EC 1995591 assessed as bacterial growth inhibition incubated for 20 hrs by […]; format: functional
# Pseudomonas aeruginosa [22] = experiment: Antibacterial activity against Pseudomonas aeruginosa PA 58 assessed as bacterial growth inhibition incubated for 20 hrs by […]; format: functional
# Klebsiella pneumoniae [23] = experiment: Antibacterial activity against Klebsiella pneumoniae KP 1963584 assessed as bacterial growth inhibition incubated for 20 hrs by […]; format: functional, organism-based; conditions: KP 1963584, 20 h
# Escherichia coli [24] = experiment: Antibacterial activity against Escherichia coli EC 1227107 assessed as bacterial growth inhibition incubated for 20 hrs by […]; format: functional
# Escherichia coli [25] = experiment: Antibacterial activity against Escherichia coli NCTC 13351 assessed as bacterial growth inhibition incubated for 20 hrs by […]; format: functional
# Pseudomonas aeruginosa [26] = experiment: Antibacterial activity against Pseudomonas aeruginosa PA T18 assessed as bacterial growth inhibition incubated for 20 hrs by […]; format: functional, organism-based; conditions: PA T18, 20 h
# Acinetobacter [27] = experiment: Antibacterial activity against Acinetobacter AC 2151300 assessed as bacterial growth inhibition incubated for 20 hrs by […]; format: functional, organism-based; conditions: AC 2151300, 20 h
# Trypanosoma cruzi [28] = experiment: Antibacterial activity against Trypanosoma cruzi Y assessed as bacterial growth inhibition incubated for 24 hrs; format: functional, organism-based
# Trypanosoma cruzi [29] = experiment: Antibacterial activity against Trypanosoma cruzi Dm28c assessed as inhibition of bacterial growth incubated for 72 hrs by microplate reader analysis; format: functional, organism-based
# U-266 = experiment: Anticancer activity against human U-266 cells assessed as cell growth inhibition incubated for 24 hrs by MTS assay; format: functional, cell-based; conditions: U-266, 24 h
# MIA PaCa-2 = experiment: Anticancer activity against human MIA PaCa-2 cells xenografted in female Foxn1nu mouse assessed as reduction in tumor growth po,administered once daily for 28 days; format: functional; conditions: time 28 day
# DU-145 = experiment: Anticancer activity against human DU-145 cells assessed as cell growth inhibition incubated for 24 to 96 hrs by MTT assay; format: functional, cell-based
# PC-3 = experiment: Anticancer activity against human PC-3 cells assessed as cell growth inhibition incubated for 24 to 96 hrs by MTT assay; format: functional, cell-based
structure (smiles),measurement,setting,value
CC(=O)C[Se]C(=O)c1ccc(Cl)cc1,MIC,Enterococcus faecalis [1],12.5 µM
same,MIC,Staphylococcus aureus [2],3.91 µM
same,MIC,Staphylococcus aureus [3],3.12 µM
c1ccc([Se][Se]c2ccccc2)cc1,MIC,Candida albicans,4 mg/L
same,MIC,Aspergillus,0.5 mg/L
same,IC50,SH-SY5Y,30 µM
same,MIC,Fusarium,2 mg/L
NS(=O)(=O)c1ccc(CCNC(=[Se])NC(=O)c2ccc3c(c2)OCO3)cc1,Ki,[4],0.0003 µM
NS(=O)(=O)c1ccc([Se]CCc2ccccc2)cc1,Ki,[5],0.0043 µM
CC1(C)OC2=C(CC1[Se]c1ccc(F)cc1)C(=O)C(=O)c1ccccc12 (configuration not stated),fold change (FC),Trypanosoma cruzi [6],2.6
CN(C)C(SCCCCCCN(C)c1ccc(-n2[se]c3ccccc3c2=O)cc1)=[N+](C)C,IC50,EBC-1,< 20 µM
NS(=O)(=O)c1ccc(CCNC(=O)C[Se]c2ccccc2)cc1,Ki,Carbonic anhydrase 12,0.0038 µM
same,Ki,Carbonic anhydrase 1,0.0642 µM
same,Ki,Carbonic anhydrase 2,0.0049 µM
same,Ki,Carbonic anhydrase 9,0.0047 µM
Cc1ccc([Se]CC(C)N)cc1 (configuration not stated),Ki,Carbonic anhydrase 7,10.4 µM
[Se]=C=NCCCCCCC1Cc2cccc3cccc(c23)C1,IC50,Leishmania amazonensis,0.28 µM
same,IC50,Leishmania major,0.0301 µM
c1csc([Se][Se]c2cccs2)c1,MIC,Enterococcus faecalis [7],96.8 mg/L
same,MIC,Bacillus cereus [8],24.2 mg/L
same,MIC,Bacillus cereus [9],24.2 mg/L
same,MIC,[10],96.8 mg/L
CCc1ccccc1-n1c(=[Se])n(C(c2ccccc2)c2ccccc2)c2ccccc21,inhibition zone (IZ),Aspergillus niger,27.01 mm
COC(CNC(=[Se])Nc1ccc([N+](=O)[O-])cc1)c1ccc(O)c(O)c1 (configuration not stated),IC50,HeLa [11],3.76 µM
same,IC50,HeLa [12],1.8 µM
CC(C)(O)c1[se][n+]2ccccc2c1Br.[Cl-],IC50,Acinetobacter [13],0.31 mg/L
same,IC50,Klebsiella pneumoniae [14],0.31 mg/L
same,IC50,Klebsiella pneumoniae [15],0.31 mg/L
same,IC50,Acinetobacter [16],0.31 mg/L
same,MIC,Escherichia coli [17],0.31 mg/L
same,IC50,Pseudomonas aeruginosa [18],0.31 mg/L
same,IC50,"Pseudomonas aeruginosa [19]; PA 54, 20 h",0.31 mg/L
same,MIC,"Pseudomonas aeruginosa [19]; PA 54, time 20 hrs",0.31 mg/L
same,MIC,Staphylococcus aureus [20],0.31 µM
same,MIC,Escherichia coli [21],0.31 mg/L
same,MIC,Pseudomonas aeruginosa [22],0.31 mg/L
same,IC50,Klebsiella pneumoniae [23],0.31 mg/L
same,MIC,Escherichia coli [24],0.31 mg/L
same,MIC,Escherichia coli [25],0.31 mg/L
same,IC50,Pseudomonas aeruginosa [26],0.31 mg/L
same,IC50,Acinetobacter [27],0.31 mg/L
O=C(Cn1ccnc1[N+](=O)[O-])NCc1ccccc1 [BENZNIDAZOLE],IC50,Trypanosoma cruzi [28],104 µM
same,IC50,Trypanosoma cruzi [29],12.5 µM
O=c1c2ccccc2[se]n1-c1ccccc1 [EBSELEN],IC50,U-266,40 µM
same,inhibition (INH),MIA PaCa-2,58%
O=c1c2ccccc2[se]n1CCn1[se]c2ccccc2c1=O [ETHASELEN],IC50,DU-145,15.5 µM
same,IC50,PC-3,17.8 µM
